Test results: patent EP4653437A2 (Innovo Therapeutics Inc., priority 2023, dated 2024)

Legend:
human 15-PGDH = molecular target: T1, human 15-PGDH (Homo sapiens, UniProt P15428); assay: Evaluation of 15-PGDH inhibitory activity (fluorescence enzyme assay, NAD+/PGE2); type: biochemical; conditions: human 15-PGDH enzyme, fluorescence Vmax
T1 construct: purchased R&D System 5660-DH
T1 sequence (P15428 1-266): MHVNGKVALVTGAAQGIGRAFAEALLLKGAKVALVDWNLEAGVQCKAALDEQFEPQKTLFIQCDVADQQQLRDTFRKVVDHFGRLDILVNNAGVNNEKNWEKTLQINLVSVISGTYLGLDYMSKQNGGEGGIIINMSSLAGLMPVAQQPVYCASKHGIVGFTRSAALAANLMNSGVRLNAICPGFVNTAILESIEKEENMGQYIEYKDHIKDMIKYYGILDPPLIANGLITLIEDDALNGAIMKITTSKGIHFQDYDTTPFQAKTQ
Procedure: 15-PGDH inhibition activity of Example compounds was measured as follows. 6.7 ng of human 15-PGDH (R&D System# 5660-DH) enzyme (10 µL) was added to a black 96 well plate, 60 µL of buffer (50 mM Tris-HCl, pH 7.5, 0.01% Tween 20) was added, and 10 µL of 200 µM β-Nicotinamide adenine dinucleotide sodium salt (Sigma, Cat# N0632-5G) was added. 10 µL of (10x) compound solution in DMSO was added and reacted for 10 minutes at room temperature.

A549 cells = assay: Measurement of PGE2-increasing activity in A549 cells (IL-1β stimulated, PGE2 quantified in supernatant); type: cell-based; conditions: Homo sapiens, 24 h; concentration of 1 µM of each compound; IL-1β treated A549 cells; read-out: Increased PGE2 production in A549 cells
Procedure: A549 cells were prepared at a cell number of 1 x 10^5/mL in F12K medium containing 10% FBS (Fetal Bovine Serum), and 2 x 10^4/200 µL was added to each well of a 96-well cell culture plate, and then cultured in an incubator with 5% CO2 at 37 °C for 24 hours. After the culture was complete and all F12K medium was removed, all wells were washed once with 100 µL of PBS, and treated with 160 µL of serum-free F12K medium. Then, 20 µL of IL-1β diluted 10-fold to a concentration of 1 ng/mL in serum-free F12K medium was treated to wells to be treated with IL-1β, and 20 µL of serum-free F12K medium was treated to wells not treated with IL-1β. For the wells to be treated with the compound, 20 µL of the compound dissolved in 100% DMSO was diluted to a concentration 10 times of the desired compound concentration in serum-free F12K medium so that the final DMSO concentration treated to the cells was 0.1%, and for the wells not to be treated with the compound, 20 µL of DMSO diluted in serum-free F12K medium so that the final DMSO concentration treated to the cells was 0.1% was treated. In order to confirm the increase or decrease in the secretion amount of PGE2 in the supernatant collected after culturing for 24 hours in an incubator with 5% CO2 at 37 °C, PGE2 was quantified using the Prostaglandin E2 Parameter (SKGE004B).

SMILES	IC50 (human 15-PGDH) [nM]	fold induction at 1 µM (A549 cells)
O=C(c1cnn2c(-c3cc(Cl)cnc3F)cccc12)N1CCCCC1 [Example 283, (7-(5-chloro-2-fluoropyridin-3-yl)pyrazolo[1,5-a]pyridin-3-yl)(piperidin-1-yl)methanone]	≤ 100	< 1.5
CN1CCC(NC(=O)c2cncc(-c3cccc4c(C(=O)N5CCCCC5)cnn34)c2)CC1 [Example 47, N-(1-methylpiperidin-4-yl)-5-(3-(piperidine-1-carbonyl)pyrazolo [1,5-a]pyridin-7-yl)nicotinamide]	≤ 100	> 1.5
O=C1NCCc2cc(-c3cccc4c(C(=O)N5CCCCC5)cnn34)ccc21 [Example 136, 6-(3-(piperidine-1-carbonyl)pyrazolo[1,5-a]pyridin-7-yl)-3,4-dihydroisoquinolin-1(2H)-one]	≤ 100	> 1.5
N#CCCNC(=O)c1cccc(-c2cccc3c(C(=O)N4CCCCC4)cnn23)c1 [Example 36, N-(2-cyanoethyl)-3-(3-(piperidine-1-carbonyl)pyrazolo[1,5-a]pyridin-7-yl)benzamide]	≤ 100	> 1.5
O=C1NCc2ccc(-c3cccc4c(C(=O)N5CC6(C5)CC(F)(F)C6)cnn34)cc21 [Example 412, 6-(3-(6,6-difluoro-2-azaspiro[3.3]heptane-2-carbonyl)pyrazolo[1,5-a]pyridin-7-yl)isoindolin-1-one]	≤ 100	> 1.5
O=C(c1cncc(-c2cccc3c(C(=O)N4CCCCC4)cnn23)c1)N1CC(F)C1 [Example 192, (3-fluoroazetidin-1-yl)(5-(3-(piperidine-1-carbonyl)pyrazolo[1,5-a]pyridin-7-yl)pyridin-3-yl)methanone]	≤ 100	> 1.5
Cc1nc(-c2ccc(-c3cccc4c(C(=O)N5CCCCC5)cnn34)cc2)no1 [Example 118, (7-(4-(5-methyl-1,2,4-oxadiazol-3-yl)phenyl)pyrazolo[1,5-a]pyridin-3-yl)(piperidin-1-yl)methanone]	≤ 100	> 1.5
O=C(c1cnn2c(-c3cc(Br)cnc3N3CC(CO)C3)cccc12)N1CCCCC1 [Example 363, (7-(5-bromo-2-(3-(hydroxymethyl)azetidin-1-yl)pyridin-3-yl)pyrazolo[1,5-a]pyridin-3-yl)(piperidin-1-yl)methanone]	≤ 100	< 1.5
O=C(c1cnn2c(-c3ccccc3)cccc12)N1CC2CCC1C2 (centres unmarked) [Example 227, (2-azabicyclo[2.2.1]heptan-2-yl)(7-phenylpyrazolo[1,5-a]pyridin-3-yl)methanone]	≤ 100	> 1.5
O=C(c1ncc(-c2cccc3c(C(=O)N4CCCCC4)cnn23)cc1Cl)N1CCC1 [Example 286, [7-[6-(azetidine-1-carbonyl)-5-chloro-3-pyridyl]pyrazolo[1,5-a]pyridin-3-yl]-(1-piperidyl)methanone]	≤ 100	> 1.5
O=C(Nc1cccc(-c2cccc3c(C(=O)N4CCCCC4)cnn23)c1)c1cccnc1 [Example 95, N-(3-(3-(piperidine-1-carbonyl)pyrazolo[1,5-a]pyridin-7-yl)phenyl)nicotinamide]	≤ 100	> 1.5
O=C1NCc2cc(-c3cccc4c(C(=O)N5CCCCC5)cnn34)ccc21 [Example 143, 5-(3-(piperidine-1-carbonyl)pyrazolo[1,5-a]pyridin-7-yl)isoindolin-1-one]	≤ 100	> 1.5
O=C(c1cnn2c(-c3ccc(-c4nnn[nH]4)cc3)cccc12)N1CCCCC1 [Example 114, (7-(4-(1H-tetrazol-5-yl)phenyl)pyrazolo[1,5-a]pyridin-3-yl)(piperidin-1-yl)methanone]	≤ 100	> 1.5

Continued, in another order:

IC50 (human 15-PGDH) [nM]	SMILES	fold induction at 1 µM (A549 cells)
≤ 100	Cn1cnc(-c2cccc3c(C(=O)N4CCCCC4)cnn23)cc1=O [Example 207, 3-methyl-6-(3-(piperidine-1-carbonyl)pyrazolo[1,5-a]pyridin-7-yl)pyrimidin-4(3H)-one]	< 1.5
≤ 100	CNC(=O)c1ccc(-c2cccc3c(C(=O)N4CCCCC4)cnn23)cn1 [Example 75, N-methyl-5-(3-(piperidine-1-carbonyl)pyrazolo[1,5-a]pyridin-7-yl)picolinamide]	> 1.5
≤ 100	O=C(c1cnn2c(-c3cc(F)cc(-c4noc(=O)[nH]4)c3)cccc12)N1CCCCC1 [Example 299, 3-(3-fluoro-5-(3-(piperidine-1-carbonyl)pyrazolo[1,5-a]pyridin-7-yl)phenyl)-1,2,4-oxadiazol-5(4H)-one]	> 1.5
≤ 100	O=C(Nc1ccncc1)c1cccc(-c2cccc3c(C(=O)N4CCCCC4)cnn23)c1 [Example 38, 3-(3-(piperidine-1-carbonyl)pyrazolo[1,5-a]pyridin-7-yl)-N-(pyridin-4-yl)benzamide]	> 1.5
≤ 100	O=C(c1cnn2c(-c3ccc(N(Cc4ccccc4[N+](=O)[O-])C(=O)c4cccnc4)cc3)cccc12)N1CCCCC1 [Example 340, N-(2-nitrobenzyl)-N-(4-(3-(piperidine-1-carbonyl)pyrazolo|[1,5-a]pyridin-7-yl)phenyl)nicotinamide]	> 1.5
≤ 100	O=C(c1cnn2c(NCc3ncccn3)cccc12)N1CCCCC1 [Example 148, piperidin-1-yl(7-((pyrimidin-2-ylmethyl)amino)pyrazolo[1,5-a]pyridin-3-yl)methanone]	> 1.5
≤ 100	O=C(c1cnn2c(-c3csc4ccccc34)cccc12)N1CCCCC1 [Example 124, (7-(benzo[b]thiophen-3-yl)pyrazolo[1,5-a]pyridin-3-yl)(piperidin-1-yl)methanone]	> 1.5
≤ 100	N#Cc1cc(-c2cccc3c(C(=O)N4CCCCC4)cnn23)cc([N+](=O)[O-])c1 [Example 312, 3-nitro-5-(3-(piperidine-1-carbonyl)pyrazolo[1,5-a]pyridin-7-yl)benzonitrile]	> 1.5
≤ 100	O=C(c1cnn2c(-c3cncc(F)c3)cccc12)N1CCCCC1 [Example 284, (7-(5-fluoropyridin-3-yl)pyrazolo[1,5-a]pyridin-3-yl)(piperidin-1-yl)methanone]	> 1.5
≤ 100	O=C(c1cnn2c(-c3cncc(-c4noc(=O)[nH]4)c3)cccc12)N1CCCCC1 [Example 297, 3-(5-(3-(piperidine-1-carbonyl)pyrazolo[1,5-a]pyridin-7-yl)pyridin-3-yl)-1,2,4-oxadiazol-5(4H)-one]	< 1.5
≤ 100	CN(C)c1cc(-c2cccc3c(C(=O)N4CCCCC4)cnn23)ccc1C#N [Example 23, 2-(dimethylamino)-4-(3-(piperidine-1-carbonyl)pyrazolo[1,5-a]pyridin-7-yl)benzonitrile]	> 1.5
≤ 100	O=C(Cc1cncnc1)Nc1cncc(-c2cccc3c(C(=O)N4CCCCC4)cnn23)c1 [Example 403, N-(5-(3-(piperidine-1-carbonyl)pyrazolo[1,5-a]pyridin-7-yl)pyridin-3-yl)-2-(pyrimidin-5-yl)acetamide]	> 1.5
